Some results are limits rather than exact numbers.

The target of one experiment is T1, human KDR (Homo sapiens, UniProt P35968).
T1 construct: expressed in transfected cells; host or cells: NIH 3T3 cells (Sawano A et al., Cell Growth & Differentiation 7, 213-221 (1996))
As to the kind of experiment: Inhibitory activity against KDR phosphorylation by ELISA. Format: cell-based. Conditions: NIH 3T3 cells transfected with human KDR, VEGF 100 ng/ml. The method, then:
Measurement of Inhibitory Activity Against KDR Phosphorylation by ELISA
NIH 3T3 cells (Sawano A et al., Cell Growth & Differentation, 7, 213–221 (1996), “Flt-1 but not KDR/Flk-1 tyrosine kinase is a receptor for placenta growth factor, which is related to vascular endothelial growth factor”) prepared by transfection of human KDR were cultured in a DMEM medium containing 10% fetal calf serum (purchased from GIBCO BRL) within a 5% carbon dioxide incubator until 50 to 70% confluent. The harvested cells were inoculated into wells, containing the same medium, in a collagen-type one-coat 96-well flat-bottom plate in an amount of 1.5×10^4 per well, followed by cultivation at 37° C. overnight. The medium was then replaced by a DMEM medium containing 0.1% fetal calf serum. A solution of the test compound in dimethyl sulfoxide was added to each well, and the cultivation was continued at 37° C. for additional one hr. A human recombinant vascular endothelial growth factor (hereinafter abbreviated to “VEGF”) was added to a final concentration of 100 ng/ml, and the stimulation of cells was carried out at 37° C. for 2 min. The medium was removed, the cells were washed with phosphate buffered saline (pH 7.4), and 50 μl of a solubilization buffer (20 mM HEPES (pH 7.4), 150 mM NaCl, 0.2% Triton X-100, 10% glycerol, 5 mM sodium orthovanadylate, 5 mM disodium ethylenediaminetetraacetate, and 2 mM Na4P2O7) was then added thereto. The mixture was shaken at 4° C. for 2 hr to prepare a cell extract.
Separately, phosphate buffered saline (50 μl, pH 7.4) containing […] of anti-phospho-tyrosine antibody (PY20; purchased from Transduction Laboratories) was added to a microplate for ELISA (Maxisorp; purchased from NUNC), followed by standing at 4° C. overnight to form a solid phase on the wells. After washing of the plate, 300 μl of a blocking solution was added, followed by standing at room temperature for 2 hr to perform blocking. After washing, the whole quantity of the cell extract was transferred to the wells, and the plate was then allowed to stand at 4° C. overnight. After washing, an anti-KDR antibody (purchased from Santa Cruz) was allowed to react at room temperature for one hr, and, after washing, a peroxidase-labeled anti-rabbit Ig antibody (purchased from Amersham) was allowed to react at room temperature for one hr. After washing, a chromophoric substrate for peroxidase (purchased from Sumitomo Bakelite Co., Ltd.) was added thereto to initiate a reaction. After a suitable level of color development, a reaction termination solution was added to stop the reaction, and the absorbance at 450 nm was measured with a microplate reader. The KDR phosphorylation activity for each well was determined by presuming the absorbance with the addition of VEGF and without the addition of the medicament to be 100% KDR phosphorylation activity and the absorbance without the medicament and VEGF to be 0% KDR phosphorylation activity. The concentration of the test compound was varied on several levels, the inhibition (%) of KDR phosphorylation was determined for each case, and the concentration of the test compound necessary for inhibiting 50% of KDR phosphorylation (IC50) was calculated.

Another experiment concerns Human glioma cells GL07. As to the kind of experiment: Antitumor effect on human glioma cells (GL07) transplanted into nude mice. In kind it is in vivo. The settings on record: Mus musculus, Glioma cell, 216 h, GL07, oral, 20 mg/kg once a day for 9 days, read-out: TGIR, % (tumor growth inhibition rate). How it is done:
Antitumor Effect on Human Glioma Cells (GL07)
Human glioma cells GL07 (obtained from Central Laboratories for Experimental Animals) were transplanted into nude mice. When the tumor volume became about 100 mm^3, the mice were grouped. In this case, grouping was carried out so that each group consisted of four mice and the average tumor volume was even among the groups. The test compound was orally or intraperitoneally administered at a dose of 20 mg/kg to the test groups every day once a day for 9 days, while the medium was administered to the control group in the manner as in the test groups. The tumor growth inhibition rate (TGIR) was calculated as follows: The tumor growth inhibition rate (TGIR)=(1−Tx/Cx)×100 wherein Cx represents the volume of tumor at day x for the control group when the tumor volume at the day of the start of the administration was presumed to be 1; and Tx represents the volume of tumor for test compound administration groups.

T1 sequence (P35968 20-1356): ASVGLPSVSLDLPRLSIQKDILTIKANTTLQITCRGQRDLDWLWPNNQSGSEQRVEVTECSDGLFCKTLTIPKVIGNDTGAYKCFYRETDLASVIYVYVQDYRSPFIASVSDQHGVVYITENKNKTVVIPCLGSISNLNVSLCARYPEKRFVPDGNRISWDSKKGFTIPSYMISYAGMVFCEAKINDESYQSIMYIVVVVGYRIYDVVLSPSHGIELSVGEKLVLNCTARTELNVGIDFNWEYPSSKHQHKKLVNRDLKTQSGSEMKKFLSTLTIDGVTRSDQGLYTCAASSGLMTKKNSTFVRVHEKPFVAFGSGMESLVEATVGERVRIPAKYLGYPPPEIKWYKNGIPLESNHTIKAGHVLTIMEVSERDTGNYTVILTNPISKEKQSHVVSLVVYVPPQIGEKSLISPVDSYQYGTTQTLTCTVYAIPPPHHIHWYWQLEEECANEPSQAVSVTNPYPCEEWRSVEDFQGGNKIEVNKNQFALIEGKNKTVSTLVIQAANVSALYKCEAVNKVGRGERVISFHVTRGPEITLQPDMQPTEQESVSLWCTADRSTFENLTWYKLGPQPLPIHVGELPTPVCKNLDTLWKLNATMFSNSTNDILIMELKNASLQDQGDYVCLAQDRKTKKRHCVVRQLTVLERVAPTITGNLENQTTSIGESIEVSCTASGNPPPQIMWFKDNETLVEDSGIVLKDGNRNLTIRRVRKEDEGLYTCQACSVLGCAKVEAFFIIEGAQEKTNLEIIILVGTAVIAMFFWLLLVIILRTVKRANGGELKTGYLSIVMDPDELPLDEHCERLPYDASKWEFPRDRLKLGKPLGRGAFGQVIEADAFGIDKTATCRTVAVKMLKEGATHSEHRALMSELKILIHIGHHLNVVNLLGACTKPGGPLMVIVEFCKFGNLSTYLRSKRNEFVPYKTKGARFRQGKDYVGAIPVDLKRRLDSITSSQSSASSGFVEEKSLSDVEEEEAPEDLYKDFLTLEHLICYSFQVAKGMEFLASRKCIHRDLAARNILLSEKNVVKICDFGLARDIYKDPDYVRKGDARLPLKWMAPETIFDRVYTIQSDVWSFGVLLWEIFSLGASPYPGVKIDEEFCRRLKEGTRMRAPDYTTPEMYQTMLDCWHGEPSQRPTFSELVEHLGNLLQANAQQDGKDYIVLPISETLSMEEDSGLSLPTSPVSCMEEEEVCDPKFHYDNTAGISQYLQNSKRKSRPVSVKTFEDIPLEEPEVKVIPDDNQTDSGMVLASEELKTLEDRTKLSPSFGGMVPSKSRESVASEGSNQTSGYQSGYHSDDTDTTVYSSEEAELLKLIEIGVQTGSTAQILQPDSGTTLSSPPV

One may read the IC50 as the concentration needed to halve the response being measured. Lower therefore signals greater potency. For `CCNC(=O)Nc1cc(C)c(Oc2ccnc3cc(OCCN4CCOCC4)c(OC)cc23)cc1C` [Example 175, N-Ethyl-N′-(4-{[6-methoxy-7-(2-morpholinoethoxy)-4-guinolyl]oxy}-2,5-dimethylphenyl)urea], on human KDR, the concentration for half-maximal inhibition (IC50) stood at 4.7 nM. The inhibition in vivo at 20 mg/kg with Human glioma cells GL07 came out at 17%.
For `CCCNC(=O)Nc1ccc(Oc2ccnc3cc(OCc4ccncc4)c(OC)cc23)cc1Cl` [Example 143, N-(2-chloro-4-{[6-methoxy-7-(4-pyridylmethoxy)-4-quinolyl]oxy}phenyl)-N′-propylurea] the same measures were 3.5 nM and 53%.
`COc1cc2c(Oc3ccc(NC(=O)N(C)C)c(Cl)c3)ncnc2cc1OCc1ccncc1` [Example 180, N′-(2-Chloro-4-{[6-methoxy-7-(4-pyridylmethoxy)-4-quinazolinyl]oxy}phenyl)-N,N-dimethylurea] showed a half-maximal inhibitory concentration (IC50) against human KDR of over 1000 nM. Moreover, the inhibition in vivo at 20 mg/kg in the experiment on Human glioma cells GL07 was found to be 45%.
For `COc1cc2c(Oc3ccc(NC(=O)N(C)C)c(Cl)c3)ncnc2cc1OCCCCN1CCOCC1` [Example 179, N′-(2-Chloro-4-{[6-methoxy-7-(4-morpholinobutoxy)-4-quinazolinyl]oxy}phenyl)-N,N-dimethylurea], in that order: over 1000 nM and 33%.
For `CCCNC(=O)Nc1ccc(Oc2ccnc3cc(OCCN4CCOCC4)c(OC)cc23)cc1Cl` [Example 144, N-(2-chloro-4-{[6-methoxy-7-(2-morpholinoethoxy)-4-quinolyl]oxy}phenyl)-N′-propylurea], in that order: 1.6 nM and 56%.
For `COc1cc2c(Oc3ccc(NC(=O)Nc4ccc(F)cc4F)c(Cl)c3)ccnc2cc1OCCN1CCN(C)CC1` [Example 166, N-[2-Chloro-4-({6-methoxy-7-[2-(4-methylpiperazino)ethoxy]-4-guinolyl}oxy)phenyl]-N′-(2,4-difluorophenyl)urea], in that order: 2.2 nM and 27%.
`CCCNC(=O)Nc1ccc(Oc2ccnc3cc(OCc4cccnc4)c(OC)cc23)cc1Cl` [Example 142, N-(2-chloro-4-{[6-methoxy-7-(3-pyridylmethoxy)-4-quinolyl]oxy}phenyl)-N′-propylurea]: the IC50 on human KDR was found to be 2.6 nM. For the same compound, in the experiment on Human glioma cells GL07, the inhibition in vivo at 20 mg/kg came to 48%.
For `CCCNC(=O)Nc1ccc(Oc2ccnc3cc(OCCCO)c(OC)cc23)cc1Cl` [Example 147, N-(2-Chloro-4-{[7-(3-hydroxypropoxy)-6-methoxy-4-guinolyl]oxy}phenyl)-N′-propylurea], in that order: 1 nM and 34%.
For `CCCCN(C)C(=O)Nc1ccc(Oc2ncnc3cc(OC)c(OC)cc23)cc1Cl` [Example 114, N-Butyl-N′-{2-chloro-4-[(6,7-dimethoxy-4-quinazolinyl)oxy]phenyl}-N-methylurea] the same measures were over 1000 nM and 60%.
For `CCCN(C)C(=O)Nc1ccc(Oc2ncnc3cc(OC)c(OC)cc23)cc1Cl` [Example 111, N′-{2-Chloro-4-[(6,7-dimethoxy-4-quinazolinyl)oxy]phenyl}-N-methyl-N-propyurea] the same measures were over 1000 nM and 78%.
The compound `CCCNC(=O)Nc1ccc(Oc2ccnc3cc(OCCN(C)CCO)c(OC)cc23)cc1Cl` [Example 150, N-{2-Chloro-4-[(7-{2-[(2-hydroxyethyl)-(methyl)amino]ethoxy}-6-methoxy-4-guinolyl)oxy]phenyl}-N′-propylurea] showed an IC50 at human KDR of 1.8 nM. The inhibition in vivo at 20 mg/kg in the experiment on Human glioma cells GL07 came out at 22%.
With `COc1cc2c(Oc3ccc(NC(=O)Nc4ccc(F)cc4F)c(Cl)c3)ccnc2cc1OCc1cccnc1` [Example 169, N-(2-chloro-4-{[6-methoxy-7-(3-pyridylmethoxy)-4-quinolyl]oxy}phenyl)-N′-(2,4-difluorophenyl)urea], the concentration for half-maximal inhibition (IC50) on human KDR was 3.7 nM. For the same compound, in the experiment on Human glioma cells GL07, the inhibition in vivo at 20 mg/kg was 55%.
For `CCCNC(=O)Nc1ccc(Oc2ncnc3cc(OCCCCN4CCOCC4)c(OC)cc23)cc1Cl` [Example 127, N-(2-Chloro-4-{[6-methoxy-7-(4-morpholinobutoxy)-4-quinazolinyl]oxy}phenyl)-N′-propylurea], in that order: 1.1 nM and 25%.
For `COc1cc2c(Oc3ccc(NC(=O)N(C)C)c(Cl)c3)ncnc2cc1OCCN1CCOCC1` [Example 178, N′-(2-Chloro-4-{[6-methoxy-7-(2-morpholinoethoxy)-4-quinazolinyl]oxy}phenyl)-N,N-dimethylurea] the same measures were over 1000 nM and 28%.
Compound `CCCNC(=O)Nc1ccc(Oc2ncnc3cc(OCCCSc4nnnn4C)c(OC)cc23)cc1Cl` [Example 134, N-{2-Chloro-4-[(6-methoxy-7-{3-[(1-methyl-1H-1,2,3,4-tetrazol-5-yl)thio]propoxy}-4-quinazolinyl)-oxy]phenyl}-N′-propylurea] returned a half-maximal inhibitory concentration (IC50) against human KDR of 5 nM. In addition, the inhibition in vivo at 20 mg/kg in the experiment on Human glioma cells GL07 was found to be 29%.
At human KDR, `CCCNC(=O)Nc1ccc(Oc2ccnc3cc(OCCn4ccnc4)c(OC)cc23)cc1Cl` [Example 146, N-[2-chloro-4-(7-{[2-(1H-1-imidazolyl)ethoxy]-6-methoxy-4-quinolyl}oxy)phenyl]-N′-propylurea] registered an IC50 of 1 nM. Further, the inhibition in vivo at 20 mg/kg in the experiment on Human glioma cells GL07 is 48%.
For `CCCNC(=O)Nc1ccc(Oc2ccnc3cc(OCCCN(C)CCO)c(OC)cc23)cc1Cl` [Example 157, N-{2-chloro-4-[(7-{3-[(2-hydroxyethyl)-(methyl)amino]propoxy}-6-methoxy-4-quinolyl)oxy]-phenyl}-N′-propylurea], in that order: 0.4 nM and 44%.
For `COc1cc2c(Oc3cc(C)c(NC(=O)Nc4ccc(F)cc4F)cc3C)ccnc2cc1OCCn1ccnn1` [Example 177, N-(2,4-Difluorophenyl)-N′-[4-({6-methoxy-7-[2-(1H-1,2,3-triazol-1-yl)ethoxy]-4-guinolyl}oxy)-2,5-dimethylphenyl]urea], in that order: 2.3 nM and 35%.
For `CCCNC(=O)Nc1ccc(Oc2ncnc3cc(OCCCN4CCOCC4)c(OC)cc23)cc1Cl` [Example 119, N-(2-chloro-4-{[6-methoxy-7-(3-morpholinopropoxy)-4-quinazolinyl]oxy}phenyl)-N′-propylurea], in that order: 3.6 nM and 40%.
With `COc1cc2c(Oc3ccc(NC(=O)Nc4ccc(F)cc4F)c(Cl)c3)ncnc2cc1OCCCN1CCOCC1` [Example 163, N-(2-chloro-4-{[6-methoxy-7-(3-morpholinopropoxy)-4-quinazolinyl]oxy}phenyl)-N′-(2,4-difluorophenyl)urea], at human KDR, the IC50 amounted to 1.4 nM. In addition, the inhibition in vivo at 20 mg/kg in the experiment with Human glioma cells GL07 amounted to 52%.
For `COc1cc2c(Oc3ccc(NC(=O)Nc4ccc(F)cc4F)c(Cl)c3)ccnc2cc1OCCCN1CCOCC1` [Example 168, N-(2-chloro-4-{[6-methoxy-7-(3-morpholinopropoxy)-4-quinolyl]oxy}phenyl)-N′-(2,4-difluorophenyl)-urea], in that order: 4 nM and 42%.

These data come from patent publication US7169789B2 (Kirin Beer Kabushiki Kaisha, priority 1999, dated 2007).
